{"source": "patent US12180509B2", "about": "“Methods for reprograming non-pluripotent cells into pluripotent stem cells” (Beihao Stem Cell and Regenerative Medicine Research …, priority 2015, dated 2024)", "format_in_all_cases": "cell-based, mouse", "key": {"[1]": {"test_system": "MEFs from OG mice", "test": "Screen for small molecules that facilitate late reprogramming (DOX-inducible Oct4 plus VC6T)", "conditions": "VC6T plus DOX-induced Oct4 for the first 4-8 days", "description": "To identify small molecules that facilitate late reprogramming, a doxycycline (DOX)-inducible Oct4 expression screening system was used (Li, et al., Cell Res. 21:196-204 (2011)).\nMEFs from OG mice were plated as described above and infected with Fu-tet-hOct4 and FUdeltaGW-rtTA lentiviruses. The induction protocol was carried out as described above.\nAfter infection, the culture medium was replaced with LIF-free ESC culture medium containing VC6T (VPA, CHIR99021, 616452, Tranylcypromine) plus DOX (1 μg/ml). Alternatively, MEFs harboring DOX-inducible Oct4 from Tet-On POUSF1 mouse strain B6; 129-Gt (ROSA)26Sor^tm1(TrtTA*M2)Jae Colla1^tm2(tetO-Pou5f1)Jae/J were used in this screen (Li, et al., Cell Res., 21:196-204 (2011)). These two DOX-inducible systems were only used in this screen, but not in complete chemical reprogramming. Individual chemicals from small-molecule libraries were added to each well. Small molecules were added at different culture time points. 5-aza-C(5-Azacytidine) and DZNep were added from day 8. The medium and chemicals were changed every 4 days; DOX was added only for the first 4-8 days. Chemical treatments were continued for 16-24 days or until GFP-positive colonies appeared. Primary hits were selected for further confirmation and optimization. CiPSC colonies were counted on day 44. […]"}, "[2]": {"test_system": "pluripotency-related genes and XEN marker genes", "test": "Real-time PCR of pluripotency, XEN and MET genes during chemical reprogramming", "conditions": "for endogenous expression of Sall4 and Sox2 on withdrawal of the chemical: chemicals withdrawn from VC6TF, after 12 days; for expression of XEN marker genes (Sall4, Gata4, Sox17): stage 1, fibroblasts to XEN-like cells", "description": "Total RNA from an entire well of cultured cells was isolated using the RNeasy Plus MiniKit (QIAGEN). For a single colony, RNA was isolated using the RNeasy Micro Kit (QIAGEN). RNA was converted to cDNA using TransScript First-Strand cDNA Synthesis SuperMix (TransGen Biotech). PCR was carried out using Power SYBRR Green PCR Master Mix (Applied Biosystems) and performed on an ABI Prism 7300 Sequence Detection System. The data were analyzed using the delta-delta Ct method."}, "[3]": {"test_system": "MEFs", "test": "CiPSC induction from MEFs with small-molecule combinations (no XEN priming)", "conditions": "for replacement of DZNep in CiPSC generation: SAH hydrolase inhibitor in combination with VC6TF", "quoted_text": "The initial cells (MEFs, MNFs, MAFs or ADSCs) were seeded at a density of 50,000 cells per well of a 6-well plate or 300,000 cells per 100 mm dish. On the next day (day 0), the original medium was replaced with chemical reprogramming medium containing the small-molecule combinations. The small-molecule combinations-containing medium was changed every 4 days. On day 12, these cells were washed in PBS and digested with 0.25% Trypsin-EDTA (Invitrogen) at 37° C. for 3-5 min. After neutralization, the cell clumps were dissociated into single cells by thorough pipetting. The cells were harvested (300,000-1,000,000 cells per well of a 6-well plate) and replated at a density of 300,000-500,000 cells per well of a 6-well plate in the chemical reprogramming medium containing the small-molecule combinations. DZNep was added to the cell cultures on day 16 or day 20. On day 28-36, the small-molecule combinations including DZNep were removed. Meanwhile, the chemical reprogramming medium was replaced with 2i-medium. After another 8-12 days, 2i-competent, ESC-like and GFP-positive colonies were counted as primary CiPSC colonies. For CiPSC induction from wild-type cells without OG reporter, 2i-competent and ESC-like colonies were counted as primary CiPSC colonies. These CiPSC colonies were picked up for expansion and characterization. Alternatively, CiPSCs could be induced without replating on day 12."}, "[4]": {"test_system": "MEFs from OG mice", "test": "Screen for chemical substitutes of Oct4 in OG-MEFs infected with Sox2, Klf4 and c-Myc", "conditions": "OG-MEFs with viral expression of Sox2, Klf4 and c-Myc, no Oct4", "description": "To identify chemical substitutes of Oct4, MEFs from OG mice were plated at a density of 20,000 cells per well of a 12-well plate and infected with lentiviruses encoding Sox2, Klf4 and c-Myc. After infection, the medium was replaced with LIF-free ESC culture medium. Individual chemicals from small-molecule libraries were added to each well. The medium and chemicals were changed every 4 days. Chemical treatments were continued for 14-20 days or until GFP-positive colonies appeared. Primary hits were selected for further confirmation and optimization.\nSmall molecules that enable reprogramming in the absence of Oct4 were searched using Oct4 promoter-driven green fluorescent protein (GFP) expression (OG) mouse embryonic fibroblasts (MEFs), with viral expression of Sox2, Klf4, and c-Myc."}, "[5]": {"test_system": "cAMP", "test": "Intracellular cAMP quantification (Direct cAMP ELISA)", "conditions": "MEF, FSK 10 μM versus DMSO control", "description": "(§1) CAMP was quantified using the Direct cAMP ELISA Kit (Enzo) according to the manufacturer's protocol. For SAM and SAH quantification, cultured cells (1,000,000 cells) were trypsinized and homogenized by ultrasonication in 200 μl PBS. Then 40 μl of 400 mg/ml TCA was added. Cell extracts were incubated on ice for 30 min. After centrifugation at 4° C. (13,000 rpm, 15 min), the supernatants were filtered through a 0.22 μm filter and analyzed by high-performance liquid chromatography (HPLC, Shimadzu) with HILIC columns (Waters).\nThe effect of inhibiting adenylate cyclase on the number of colonies generated by VC6TFZ was tested. […] The effect of replacing FSK with the cAMP analog (DBcAMP), alone or in combination with phosphodiesterase inhibitors, IBMX, or the phosphodiesterase inhibitor, rolipram and IBMX, on cell reprograming was also tested. Both DBcAMP and IBMX were used at 50 μM in the combination treatment."}, "[6]": {"test_system": "intracellular levels SAH to SAM", "test": "SAM and SAH quantification by HPLC", "conditions": "during chemical reprogramming, relative to MEFs", "description": "as §1"}, "[7]": {"test_system": "Oct4 promoter", "test": "DNA methylation (bisulfite sequencing) and H3K9 methylation (ChIP) at the Oct4 promoter", "conditions": "presence versus absence of DZNep, day 32", "description": "Genomic DNA was modified by bisulfite treatment and purified using the MethylCode™ Bisulfite Conversion Kit (Invitrogen) according to the manufacturer's protocol. The amplified fragments were cloned into the pEASY-blunt Vector (Transgene). Ten randomly picked clones from each sample were sequenced. ChIP was performed using the EZ-Magna ChIP A/G Kit (Millipore) according to the manufacturer's protocol. Anti-H3K27me3 (Abcam, ab6002), anti-H3K9me2 (Millipore, 07-441), anti-H3K4me3 (Abcam, ab8580) and anti-H3K9ac (Abcam, ab4441) antibodies were used. Following immunoprecipitation, DNA was analyzed by real-time PCR."}}, "note": "Where a name gives a salt, the structure may show the parent alone.", "data": [{"smiles": "COc1ccc(C2CNC(=O)C2)cc1OC1CCCC1", "note": "(centres unmarked) [Rolipram]", "values": [{"measurement": "small molecule hit facilitating late reprogramming", "setting": "[1]", "value": "identified in this screen"}]}, {"smiles": "Cc1cccc(-c2n[nH]cc2-c2ccc3ncccc3n2)n1", "note": "[compound 616452, 2-(3-(6-Methylpyridin-2-yl)-1H-pyrazol-4-yl)-1,5-naphthyridine]", "values": [{"measurement": "endogenous expression of Sall4 and Sox2 on withdrawal of the chemical", "setting": "[2]", "value": "essential in activating the endogenous expression of Sall4 and Sox2"}]}, {"smiles": "O=C(O)[C@@H](Cc1c[nH]c2ccccc12)N1C(=O)C2=CCCC=C2C1=O", "note": "[RG108]", "values": [{"measurement": "small molecule hit facilitating late reprogramming", "setting": "[1]", "value": "identified in this screen"}]}, {"smiles": "CC(C)N(CCCNC(=O)Nc1ccc(C(C)(C)C)cc1)C[C@H]1O[C@@H](n2ccc3c(N)ncnc32)[C@H](O)[C@@H]1O", "note": "[EPZ004777, 1-(3-((((2R,3S,4R,5R)-5-(4-amino-7H-pyrrolo[2,3-d]pyrimidin-7-yl)-3,4-dihydroxytetrahydrofuran-2-yl)methyl)(isopropyl)amino)propyl)-3-(4-(tert-butyl)phenyl)urea]", "values": [{"measurement": "expression of XEN marker genes (Sall4, Gata4, Sox17)", "setting": "[2]", "value": "promote the expression of XEN marker genes"}]}, {"smiles": "Nc1ncnc2c1ncn2C(C=O)OC(C=O)CO", "note": "(centres unmarked) [Adox, Adenosine, periodate oxidized]", "values": [{"measurement": "replacement of DZNep in CiPSC generation", "setting": "[3]", "value": "useful in replacing DZNep in reprogramming"}]}, {"smiles": "NC(=O)c1ccc(-c2nc(-c3ccc4c(c3)OCCO4)c(-c3ccccn3)[nH]2)cc1", "note": "[D4476, 4-[4-(2,3-Dihydro-1,4-benzodioxin-6-yl)-5-(2-pyridinyl)-1H-imidazol-2-yl]benzamide]", "values": [{"measurement": "chemical substitute for Oct4 (iPSC induction)", "setting": "[4]", "value": "identified as chemical “substitutes” for Oct4"}]}, {"smiles": "C[C@H]1O[C@@H](n2cnc3c(N)ncnc32)C[C@@H]1O", "note": "[2′5′ddAdo, 2′,5′-Dideoxyadenosine]", "values": [{"measurement": "number of colonies formed by VC6TFZ", "setting": "[3]; inhibition of adenylate cyclase during VC6TFZ treatment", "value": "decreased the number of colonies"}]}, {"smiles": "C=C[C@@]1(C)CC(=O)[C@]2(O)[C@@]3(C)[C@@H](O)CCC(C)(C)[C@@H]3[C@H](O)[C@H](OC(C)=O)[C@@]2(C)O1", "note": "[Forskolin]", "values": [{"measurement": "small molecule hit facilitating late reprogramming", "setting": "[1]", "value": "identified in this screen"}, {"measurement": "chemical substitute for Oct4 (iPSC induction)", "setting": "[4]", "value": "identified as chemical “substitutes” for Oct4"}, {"measurement": "intracellular cAMP level", "setting": "[5]", "value": "significantly elevates the CAMP level"}, {"measurement": "endogenous expression of Sall4 and Sox2 on withdrawal of the chemical", "setting": "[2]", "value": "essential in activating the endogenous expression of Sall4 and Sox2"}]}, {"smiles": "CCCCC[C@H](O)/C=C/[C@H]1[C@H](O)CC(=O)[C@@H]1C/C=C\\CCCC(=O)O", "note": "[Prostaglandin E2]", "values": [{"measurement": "small molecule hit facilitating late reprogramming", "setting": "[1]", "value": "identified in this screen"}]}, {"smiles": "CCCC(=O)[O-].[Na+]", "note": "[sodium butyrate, Sodium butyrate]", "values": [{"measurement": "small molecule hit facilitating late reprogramming", "setting": "[1]", "value": "identified in this screen"}]}, {"smiles": "Nc1nccc2c1ncn2[C@@H]1C=C(CO)[C@@H](O)[C@H]1O", "note": "[DZNep, 3-deazaneplanocin A]", "values": [{"measurement": "small molecule hit facilitating late reprogramming", "setting": "[1]", "value": "identified in this screen"}, {"measurement": "concentration ratio of SAH to SAM", "setting": "[6]", "value": "elevates the concentration ratio of SAH to S-adenosylmethionine (SAM)"}, {"measurement": "DNA methylation and H3K9 methylation at the Oct4 promoter", "setting": "[7]", "value": "significantly decreased"}, {"measurement": "Oct4 expression", "setting": "[2]; after addition of DZNep in the late phase of chemical reprogramming", "value": "enhanced significantly"}]}, {"smiles": "Nc1nccc2c1ncn2[C@@H]1O[C@H](CO)[C@@H](O)[C@H]1O", "note": "[DZA, 3-Deazaadenosine]", "values": [{"measurement": "replacement of DZNep in CiPSC generation", "setting": "[3]", "value": "useful in replacing DZNep in reprogramming"}]}, {"smiles": "Nc1ncnc2c1ncn2[C@@H]1C=C(CO)[C@@H](O)[C@H]1O", "note": "[NEPA, (−)-Neplanocin A]", "values": [{"measurement": "replacement of DZNep in CiPSC generation", "setting": "[3]", "value": "useful in replacing DZNep in reprogramming"}]}, {"smiles": "Cc1[nH]c2ccc(O)cc2c1CCN", "note": "[2-Me-5HT, 2-Methyl-5-hydroxytryptamine hydrochloride]", "values": [{"measurement": "chemical substitute for Oct4 (iPSC induction)", "setting": "[4]", "value": "identified as chemical “substitutes” for Oct4"}]}, {"smiles": "C/C(=C\\c1ccc(C(=O)O)cc1)c1ccc2c(c1)C(C)(C)CCC2(C)C", "note": "[TTNPB, 4-[(E)-2-(5,6,7,8-Tetrahydro-5,5,8,8-tetramethyl-2-naphthalenyl)-1-propenyl]benzoic acid]", "values": [{"measurement": "chemical reprogramming efficiency enhanced, factor", "setting": "[3]; TTNPB as booster added to the chemical cocktail (C6FZ or VC6TFZ) in MEFs", "value": "≤ 40"}, {"measurement": "reprogramming frequency", "setting": "[3]; with TTNPB, comparable to transcription factor-induced reprogramming", "value": "up to 0.2%"}]}, {"smiles": "Cc1cnc(-c2cnc(NCCNc3ccc(C#N)cn3)nc2-c2ccc(Cl)cc2Cl)[nH]1", "note": "[CHIR99021, 6-[[2-[[4-(2,4-Dichlorophenyl)-5-(5-methyl-1H-imidazol-2-yl)-2-pyrimidinyl]amino]ethyl]amino]-3-pyridinecarbonitrile]", "values": [{"measurement": "endogenous expression of Sall4 and Sox2 on withdrawal of the chemical", "setting": "[2]", "value": "essential in activating the endogenous expression of Sall4 and Sox2"}, {"measurement": "increase in the expression of Gata4, Sox17 and EpCAM", "setting": "[2]; increased concentration of CHIR99021 (20 μM versus 10 μM) in VC6TF, 12 days", "value": "up to 10 fold"}]}, {"smiles": "CC1(C)CCC(C)(C)c2cc(C(=O)Nc3ccc(C(=O)O)cc3)ccc21", "note": "[AM580, 4-[(5,6,7,8-Tetrahydro-5,5,8,8-tetramethyl-2-naphthalenyl)carboxamido]benzoic acid]", "values": [{"measurement": "expression of XEN marker genes (Sall4, Gata4, Sox17)", "setting": "[2]", "value": "promote the expression of XEN marker genes"}]}, {"smiles": "Nc1ncn([C@@H]2O[C@H](CO)[C@@H](O)[C@H]2O)c(=O)n1", "note": "[5-Azacytidine]", "values": [{"measurement": "small molecule hit facilitating late reprogramming", "setting": "[1]", "value": "identified in this screen"}]}]}
